# Measured values as given in article PMC4707675 (ACS infectious diseases, 2015).
# Several values for one entry are separate records, joined by “and”; a condition that tells them apart may be missing. Identical values can stand only once. Like-named read-outs stand apart in the source and are kept apart here.
# What was measured:
# Mtb strain H37Rv [1] = type: cell-based, Mycobacterium tuberculosis
# Mtb DHFR [2] = molecular target: T1, Mtb DHFR (Mycobacterium tuberculosis, UniProt P9WNX1); type: biochemical; settings: read-out: Enzyme IC50 Mtb; purified Mtb DHFR
# T1 sequence (P9WNX1 whole entry): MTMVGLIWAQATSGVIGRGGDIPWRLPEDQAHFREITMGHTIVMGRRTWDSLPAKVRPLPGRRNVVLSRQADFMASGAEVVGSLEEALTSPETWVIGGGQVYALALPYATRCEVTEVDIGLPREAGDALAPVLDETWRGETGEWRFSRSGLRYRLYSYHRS
# [3] = tested on: intracellular Mtb growth in macrophages (THP-1 cells); assay: Intracellular assay of Mtb clearance in THP-1 cells; type: cell-based, Mycobacterium tuberculosis; settings: Mtb in THP-1 cells
# [4] = type: in vitro ADME
# Mtb strain H37Rv [5] = settings: cited from earlier work; for activity against live Mtb: result in words; for MIC90 wt: wild-type Mtb, ref Nixon et al.[15]
# Mtb DHFR [6] = molecular target: T1, Mtb DHFR; settings: cited from earlier work; for inhibition of the Mtb DHFR enzyme: result in words
# human DHFR = molecular target: T2, human DHFR (Homo sapiens, UniProt P00374); assay: Biochemical assay of human DHFR; settings: read-out: Enzyme IC50 Human; recombinant human DHFR
# T2 sequence (P00374 1-187): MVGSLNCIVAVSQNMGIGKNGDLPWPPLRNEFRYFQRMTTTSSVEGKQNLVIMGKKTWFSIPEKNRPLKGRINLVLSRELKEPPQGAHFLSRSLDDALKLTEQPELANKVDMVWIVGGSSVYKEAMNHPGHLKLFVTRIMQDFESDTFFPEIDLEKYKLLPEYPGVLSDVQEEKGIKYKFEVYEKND
# [7] = in vivo; cited from earlier work
Structure (SMILES),MIC90 wt (Mtb strain H37Rv [1]),in vitro clearance in mouse microsomes [4] [mg/mL·g],Tox50 HepG2 (HepG2) [µM],activity against live Mtb (Mtb strain H37Rv [5]),inhibition of the Mtb DHFR enzyme (Mtb DHFR [6]),other results
N#Cc1ccc(Cn2ccc3c4c(N)nc(N)nc4ccc32)cc1 [PQD-1],0.5 µM and 0.50 µM,<0.5,10,–,–,IC50 (Mtb DHFR [2]): 10.1 nM; intracell MIC90 [3]: 0.7 µM
COc1cc(NCc2ccc3nc(N)nc(N)c3c2C)cc(OC)c1OC [Trimetrexate],–,–,–,poor or no activity,strong inhibition,MIC90 wt (Mtb strain H37Rv [5]): 6.3 µM; MIC90 wt (Mtb strain H37Rv [5]; listed as trimetrexate): 6.25 µM
CC1(C)N=C(N)N=C(N)N1OCCCOc1cc(Cl)c(Cl)cc1Cl [WR99210],1 to 2 µM,<0.5,40,–,–,"IC50 (human DHFR): 9 nM; cell health: membrane permeability (HepG2 human hepatocytes): 19 µM; cell health: mitochondrial potential (HepG2 human hepatocytes): 25 µM; cell health: nuclear morphology (HepG2 human hepatocytes): 10 µM; IC50 (Mtb DHFR [6]; read-out: Enzyme IC50 Mtb, ref Nixon et al.[15]): 14 nM; toxicity in humans [7]: acute gastrointestinal toxicity"
CN(Cc1cnc2nc(N)nc(N)c2n1)c1ccc(C(=O)N[C@@H](CCC(=O)O)C(=O)O)cc1 [methotrexate],–,–,–,poor or no activity,–,–
CCc1nc(N)nc(N)c1-c1ccc(Cl)cc1 [pyrimethamine],–,–,–,poor or no activity,strong inhibition,–
